Here are results for 19 compounds from PubChem BioAssay (NCI).

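Dose response: 5 concentrations. Exposure: 48 h. Format: 96-well plates. Endpoint: linear interpolation; highest concentration if not reached. The concentration for full growth arrest is given as TGI.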 A value given as a limit tells only on which side of the number the result lay.

Test in all cases: NCI anticancer screen, dose series, 48 h
Assay [1] has as its system DMS 273 small cell lung.
In assay [2] the test system is M19-MEL melanoma.
In assay [3] the test system is LXFL 529 NSCLC.
Assay [4] concerns SNB-78 CNS.
The subject of assay [5] is XF 498 CNS.
Assay [6] deals with DMS 114 small cell lung.
The subject of assay [7] is HOP-18 NSCLC.
Assay [8] relates to DLD-1 colon.
The test system of assay [9] is RXF-631 renal.

For the compound `CCOC(=O)c1nc2ccc(Cl)cc2c2c1CCO2`, the TGI in assay [1], in assay [2], in assay [3], in [4], in assay [5] and in assay [6] was over 100 µM each time. Further, the TGI in assay [7] and in [8] was over 100 µM throughout.
Regarding `O=C1C(Cl)C(c2ccc(Cl)cc2)N1n1cnc2ccccc2c1=O` (centres undefined), the TGI in assay [1], in assay [2], in assay [3], in [4], in [5] and in assay [6] was over 100 µM each time. Besides, the TGI in [7] and in assay [8] was over 100 µM in each case.
Consider `Cn1c(=O)c2c(nc(C[N+]3([O-])CCOCC3)n2C)n(C)c1=O`, for which the TGI in assay [1], in [2], in [3], in [5], in assay [6] and in [8] was over 100 µM throughout.
For `NC12CC3CC(C1)CC(Cl)(C3)C2`, the TGI in [1], in assay [2], in [3], in assay [4], in assay [9] and in [5] was over 100 µM throughout. In addition, the TGI in assay [6] and in assay [8] was over 100 µM throughout.
With `COc1cccc(/C(C=O)=C(\Cl)c2ccc(OC)c(OC)c2)c1`, the TGI in assay [1] was 27.3 µM; in assay [2], 23.4 µM; in [3], 24.4 µM; in [4], 37.7 µM; in [5], 31.1 µM; in assay [6] it was 30.5 µM. For the same compound, the TGI was 27.8 µM in [7] and 25.5 µM in [8].
`NC1=NC2(O)c3ccccc3C(=O)C2(O)N1` (centres undefined): the TGI in [1], in assay [3], in assay [4], in assay [9], in assay [6] and in assay [7] was over 100 µM each time. In assay [8], this compound yielded a TGI of over 100 µM.
As to `COc1ccc(-c2onc(-c3c(C)cc(C)cc3C)c2C2=NCCCN2)cc1`, the TGI in [2], in assay [3], in [4], in [9], in assay [5] and in assay [7] was over 100 µM in each case. Besides, the TGI in [8] was over 100 µM.
Take `CCOC(=O)C1=C(O)c2ccccc2C(=O)C1=O`: the TGI in assay [1] is over 100 µM; in assay [2] it was 54.4 µM; in assay [4], over 100 µM; in assay [5] it was over 100 µM; in assay [6], over 100 µM; in [7], over 100 µM. In [8], this compound returned a TGI of over 100 µM.
On to `CCOC(OCC)c1ccc(/C=C/c2cc(OC)c(OC)c(OC)c2)cc1`, for which the TGI worked out at 41.3 µM in assay [1]; 37 µM in assay [2]; 41.7 µM in assay [3]; 87.9 µM in assay [4]; 70.7 µM in assay [9]; 50.2 µM in assay [6]. For the same compound, the results for the TGI in [7] and in [8] were over 100 µM and 38.8 µM, respectively.
`CC(=O)c1c(O)ccc2c1CC(CC=O)O2` (centres undefined): the TGI in assay [2] is over 100 µM; in [3], over 100 µM; in [4] it was over 100 µM; in [9], over 100 µM; in [5] it was over 100 µM; in assay [6], 55.1 µM. The compound also had a TGI in [8] of over 100 µM.
In the case of `COc1ccc(C2CCC(Cl)(OC)CC2C=O)cc1` (centres undefined), the TGI was over 100 µM in [1]; over 100 µM in [2]; over 100 µM in assay [3]; 66.7 µM in assay [6]; over 100 µM in assay [7]; over 100 µM in [8].
For `Cc1nccc2c1cnc1ccnn12`, the TGI in assay [1], in assay [2], in assay [3], in assay [4], in assay [9] and in assay [6] was over 100 µM throughout. In assay [8], this compound displayed a TGI of over 100 µM.
On to `C/C(=N\NS(=O)(=O)c1ccc(C)cc1)C(CN(C)C)C(c1ccccc1)c1c(O)c2ccccc2oc1=O` (centres undefined), for which the TGI in assay [2], in assay [3], in [4], in assay [9], in [5] and in [7] was over 100 µM in each case. In assay [8], this compound gave a TGI of over 100 µM.
Regarding `NC(=O)c1csc(CCCCCCc2nc(C(N)=O)cs2)n1`, the TGI in assay [1] is over 100 µM; in [2] it was 49.3 µM; in [3], over 100 µM; in assay [4], over 100 µM; in assay [9], over 100 µM; in [6], over 100 µM. The TGI in assay [7] and in assay [8] was over 100 µM throughout.
In the case of `COc1ccc(/C=C2\N=C(c3ccccc3)N(Nc3nnc(NN4C(=O)/C(=C/c5ccc(OC)cc5)N=C4c4ccccc4)c4ccccc34)C2=O)cc1`, the TGI in [1], in [2], in assay [3], in assay [4], in [6] and in assay [7] was over 100 µM in each case. The TGI in assay [8] was over 100 µM.
Consider `CC(NC(=O)/C(C#N)=C/c1ccc2[nH]ccc2c1)c1ccccc1` (centres undefined), for which the TGI in assay [1] is 40.7 µM; in assay [3], 41.4 µM; in assay [4], 90.4 µM; in assay [6], 37.6 µM; in [7], 53.3 µM; in assay [8], 34.5 µM.
For the compound `CN(C)CCCSc1c2ccccc2nc2cc(NCC(=O)Nc3ccccc3-c3ccccc3NC(=O)CNc3ccc4c(SCCCN(C)C)c5ccccc5nc4c3)ccc12`, the TGI in assay [1], in assay [2], in assay [3], in assay [4], in [5] and in [6] was over 100 µM each time. The TGI in [7] and in assay [8] was over 100 µM each time.
With `COC(=O)[C@H]1C=C[C@@H](C)n2c(=O)c3ccccc3c(=O)n21`, the TGI in [1], in assay [2], in assay [3], in assay [4], in [5] and in assay [6] was over 100 µM in each case. This compound returned a TGI in assay [8] of over 100 µM.
`COC1=CC(C2c3cc4c(cc3[C@@H](Nc3ccc([N+](=O)[O-])cc3)C3COC(=O)[C@H]23)OCO4)=CC(=O)C1=O` (some centres undefined): the TGI in assay [1] is 5.12 µM; in [2], 45.2 µM; in assay [3], over 78.7 µM; in assay [4], over 100 µM; in assay [9], 14.1 µM; in assay [5] it was 50.7 µM. In addition, the TGI was 8.28 µM in assay [6], over 100 µM in [7] and over 96.7 µM in [8].
